Assay results published in patent US8519183B2, “Uses for amino acid anticonvulsants” (Research Corporation Technologies, Inc., priority 2000, dated 2013).
Where “and” joins values, the source holds several entries; their conditions need not be identical. Identical values can stand only once.

Key:
male ICR mice = assay: radiant heat induced tail flick response; assay type: in vivo
Description: Groups of 4 male ICR mice weighing 22±2 gms were employed. A dose (30 mg/kg) of test compound dissolved in a vehicle of saline was administered intraperitoneally. The control group received vehicle alone. At pretreatment (0 minute) a focused beam of radiant heat was applied to the middle dorsal surface of the tail to elicit a tail flick response within 6-7.5 seconds in pre-treated animals. A maximum cut-off time of 15 seconds was set. The time required to elicit a pain response was recorded for each animal at 0 and 30 minutes following administration of test compound. Prolongation by 50 percent or more (≧50%) of the time required to elicit a tail flick indicated analgesic activity.

[1] = system: ICR derived male or female mice; assay: Analgesia, Acetic Acid Writhing; assay type: in vivo; conditions: 100 mg/kg PO
From the text: In the first animal study in Example 1, the degree of pain experienced by the mice after injection by acetic acid is seen by the number of writhes. If the mice experience no pain, there is no writhing.
The protocol is based on the acetic acid writhing test in mice, developed by R. Koster, et al. Fed. Proc, 18, 412 […], and referred to a Koster test and Hunskarai, S., et al., J. Neuroscience Meth. 14: 69-76, 1985.
Reduction in the number of writhes by 50 percent or more (≧50%) per group of animals observed during the 5 to 10 minute period after acetic acid administration, relative to a vehicle treated control group, indicated analgesic activity.

[2] = system: ICR derived male or female mice; assay: formalin induced hind paw licking; assay type: in vivo; conditions: 300 mg/kg PO
Description: The degree of pain is determined by measuring the decrease in the amount of time the animal spends licking the formalin-injected paw after administration of the drug.
Reduction of the induced hind paw licking time recorded during the following 20 to 30 minutes period by 50 percent or more (50%) indicated analgesic activity.

[3] = target: T1, serotonin 5-HT1A receptor (Rattus norvegicus, UniProt P19327); assay: 5-MeODMT-induced head twitch; assay type: in vivo, rats; conditions: 10 mg/kg PO, 3 rats
T1 construct: from tissue; host or cells: living Long Evans derived rat (in vivo)
T1 sequence (P19327 1-422): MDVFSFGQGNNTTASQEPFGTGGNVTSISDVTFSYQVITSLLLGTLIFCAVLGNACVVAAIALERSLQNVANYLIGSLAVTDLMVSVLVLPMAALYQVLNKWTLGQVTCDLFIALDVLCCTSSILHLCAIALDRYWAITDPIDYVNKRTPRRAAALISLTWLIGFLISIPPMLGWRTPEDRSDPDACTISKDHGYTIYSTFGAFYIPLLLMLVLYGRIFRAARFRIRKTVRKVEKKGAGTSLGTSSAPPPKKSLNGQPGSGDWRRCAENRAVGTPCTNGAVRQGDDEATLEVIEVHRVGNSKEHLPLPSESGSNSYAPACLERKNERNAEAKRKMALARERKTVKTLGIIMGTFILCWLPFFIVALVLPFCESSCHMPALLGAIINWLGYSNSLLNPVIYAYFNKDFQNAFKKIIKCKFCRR
Description: Test substance was administered PO (30 mg/kg) to a group of 3 Long Evans derived male or female rats weighing 150±20 gms one hour before injection of 5-MeODMT (5-methoxy-N,N-dimethyltryptamine, 3 mg/kg IP).

NMDA receptor = NMDA receptor (Mus musculus, UniProt P35438); assay: NMDA receptor agonism/antagonism after ICVT administration; conditions: ICVT 1 μg/mouse, N 3
Description: Test substance was administered ICVT (intracerebroventricular, 30 μg in 5 μl/mouse). The appearance of convulsions/mortality in 2 or more (≧2) of 3 ICR derived male or female mice weighing 22±2 gms within the 5 minutes thereafter would indicate NMDA receptor agonism. At a dose where no significant agonist activity was seen within 5 minutes, ability to inhibit NMDA (60 mg/kg IV)—induced Tonic convulsions/mortality in 2 or more (≧2) of 3 ICR derived male or female mice weighing 22±gms within the following 5 minutes indicated NMDA receptor antagonist activity.

Holtzman male rats = assay: NMDA Induced Hyperalgesia (thermal escape latency); assay type: in vivo
Description: Holtzman male rats weighing 275 to 325 grams were prepared with lumbar intrathecal catheters under isoflurane anesthesia. The catheters were externalized on the back of the head. Four to five days after implant, the animals were employed.
NMDA administration was accomplished using a gear driven microinjection syringe connected to the spinal catheter by a length of calibrated PE-90 tubing. The catheter plug was immediately replaced to avoid back flow and the rat was replaced in its testing box.
A modified Hargreaves box was used which allows the direction of a focused light beam on the underface of the paw through a glass surface upon which the rat stands. Surface temperature was maintained at 30° C. Withdrawal of the paw was taken as the response. Lack of response within twenty seconds was cause to terminate the test and assign that score.
The rats were placed on the thermal escape box and allowed to acclimate for 30 minutes prior to testing. A measurement was taken for each hindpaw to establish an average baseline latency (counted as time=0). (2R)-2-(acetylamino)-N-[(4-fluorophenyl)methyl]-3-methoxypropanamide solution, that is, test product in this experiment, was given at an intrathecal dose of 1 μg/10 μl 10 minutes prior to intrathecal NMDA. A control group was given an identical amount of saline 10 minutes prior to intrathecal NMDA. Measurements were then made at 15, 30, 60, 120, 240 and 360 minutes after intrathecal NMDA injection. General behavior assessments were made during each period of observation and include: tactile allodynia (vocalization/agitation induced by light touch applied to the body surface), spontaneous vocalization, biting and chewing of body surface, loss of hind limb placing and stepping reflex, loss of hind limb weight bearing and loss of righting reflex.

Sprague Dawley male rats [4] = assay: Chung model of neuropathy, tactile threshold (von Frey hairs); assay type: in vivo
Description: Sprague Dawley male rats weighing 275 to 325 grams was used in this experiment. In this experiment, the response to neuropathic pain was determined. The neuropathic preparation used to induce an allodynic state is the surgical procedure described by Kim and Chung in Pain, 1992, 50, 355-363 (1992) and outlined in Chaplain, et al. in J. Neurosci. Meth., 1994, 53, […]. Briefly, the left L5 and L6 spinal nerves were isolated adjacent to the vertebral column and ligated with 6-0 silk suture distal to the dorsal root ganglion under isoflurane anesthesia. The rats were allowed a minimum 7 day postoperative recovery period before placement in the study.
Testing groups consisted of 6 rats per group. Each group received test article, (2R)-2-acetyl-amino)-N-[(4-fluorophenyl)methyl]-3-methoxypropanamide (hereinafter “test article”), in one of three concentrations delivered intraperitoneally; the high concentration was 50 mg/kg, the medium concentration was 30 mg/kg and the low concentration was 20 mg/kg. One group of 6 rats received saline control solution at a volume equal to that used for test article.
To assess tactile thresholds, rats were placed in a clear plastic, wire mesh-bottomed cage, divided into individual compartments. Animals were allowed to accommodate and then baseline thresholds were taken prior to drug treatment. To determine the 50% mechanical threshold for paw withdrawal, von Frey hairs were applied to the plantar mid-hindpaw, avoiding the tori (footpads). The eight von Frey hairs used are designated by [log(10*force required to bend hair, mg)] and range from 0.4-15.1 grams. Each hair was pressed perpendicularly against the paw with sufficient force to cause slight bending, and held for approximately 6-8 seconds. […] Stimuli were presented successively until either six data points were collected, or the maximum or minimum stimulus was reached. […] If a change in response occurred, either “−” to “+” or “+” to “−”, causing a change in the direction of stimulus presentation from descending to ascending or vice-versa, four additional data points were collected subsequent to the change. The resulting pattern of responses were tabulated and the 50% response threshold computer using the formula: log(threshold, mg×10)=Xf+kh
wherein: • Xf=value of the last von Frey hair applied; • k=correction factor based on response pattern (from calibration table) • h=mean distance in log units between stimuli.
Based on observations on normal, —operated rats and sham-operated rats, the cutoff of a 15.1-g hair is selected as the upper limit for testing.
The test was performed to establish an average baseline value, counted as time 0; then again at 15, 30, 60, 120 and 240 minutes after the dosing by the control saline solution or the test article.

Sprague Dawley male rats [5] = assay: general behavioral assessment at intraperitoneal doses of 30 to 100 mg/kg; assay type: in vivo
From the text: General behavioral assessments were made during each period of observation and include: tactile allodynia (vocalization/agitation induced by light touch applied to the body surface), spontaneous vocalization, biting and chewing of body surface, loss of hind limb placing and stepping reflex, loss of hind limb weight bearing, and loss of righting reflex. All assessments, were noted as “present”, “absent” or ranked according to a graded scale.
Four rats were examined at intraperitoneal (IP) doses of 30 to 100 mg/kg.

CN1CC[C@]23c4c5ccc(O)c4O[C@H]2[C@@H](O)C=C[C@H]3[C@H]1C5 [Morphine, reference compound]
% Inh. (male ICR mice; 10 mg/kg IP): 100% | Response Time 30 Min. (individual animal) (male ICR mice; 10 mg/kg IP, 30 minutes after administration, cut-off 15 seconds): >15 | Response Time 30 Min., X (male ICR mice; 10 mg/kg IP, mean of 4 mice): 15.0 | Response Time 0 Min., X (male ICR mice; 10 mg/kg IP, mean of 4 mice, pretreatment): 6.9 | Response Time 0 Min. (individual animal) (male ICR mice; 10 mg/kg IP, pretreatment (0 minute)): 7.4 (2×) and 6.5 and 6.4 | radiant heat induced tail flick response (in words) (male ICR mice; morphine control): positive response

CC(=O)Oc1ccccc1C(=O)O [Aspirin, reference compound]
No. of Writhes, X ± SEM ([1]; group of 3 mice): X ± SEM 0 ± 0 | No. of Writhes (individual animal) ([1]; one hour before acetic acid, 5 to 10 minute period): 0 | % Inh. ([1]; relative to vehicle control): 100% | % Inh. [2]: 72% | Licking Time, Ave. ([2]; 5 mice): 36 s

CN1C(=O)CN=C(c2ccccc2)c2cc(Cl)ccc21 [Diazepam, reference compound]
Head Twitch, Ave. [3]: 2

CN[C@H](CC(=O)O)C(=O)O [NMDA, N-methyl-D-aspartate, reference compound]
Agonism (mice with convulsions/mortality within 5 minutes) (NMDA receptor): 3

COC[C@@H](NC(C)=O)C(=O)NCc1ccc(F)cc1 [test article, (2R)-2-(acetylamino)-N-[(4-fluorophenyl)methyl]-3-methoxypropanamide]
thermal escape latency, baseline maintained (Holtzman male rats; intrathecal 1 μg/10 μl 10 minutes prior to intrathecal NMDA, out to 20 minutes post NMDA injection, n=2): about 14 second | thermal escape latency after dropping (Holtzman male rats; intrathecal 1 μg/10 μl, later than 20 minutes post NMDA injection, n=2): approximately 10 seconds | anti-hyperalgesic action in NMDA induced thermal hyperalgesia (in words) (Holtzman male rats; preliminary data): measurable anti-hyperalgesic actions | effect on the Chung Model (in words) (Sprague Dawley male rats [4]; 15 mg/kg, previous study): no effect | tactile threshold after dosing (increase from approximately 2) (Sprague Dawley male rats [4]; 20 mg (per kg) IP, 6 rats): ~5 grams | rats appearing sedated (Sprague Dawley male rats [4]; 30 mg IP, for approximately 1 hour): Four of 6 | tactile threshold after dosing (increase from approximately 2) (Sprague Dawley male rats [4]; 30 mg/kg IP, 6 rats): ~5 grams | tactile threshold after dosing (increase from 2) (Sprague Dawley male rats [4]; 50 mg/kg IP, 6 rats): 11 grams | rats appearing sedated (Sprague Dawley male rats [4]; 50 mg/kg IP, for approximately 1 hour post injection): 6 of 6 | duration of effect after injection (Sprague Dawley male rats [4]; IP, Chung Model): approximately 2 hours | reversal of tactile allodynia (in words) (Sprague Dawley male rats [4]; delivered intraperitoneally): significant reversal of tactile allodynia | behavioral observation (Sprague Dawley male rats [5]; 30 mg/kg IP, one rat): no behavioral deficit | behavioral observation (Sprague Dawley male rats [5]; 50 mg/kg IP, one rat, lasted 60 minutes): slightly catatonic | behavioral observation (Sprague Dawley male rats [5]; 60 mg/kg IP, one rat, within 15 minutes, severe exopthalmos, euthanized): catatonic and displayed abnormal ambulation | behavioral observation (Sprague Dawley male rats [5]; 90 mg/kg IP, one rat, within 15 minutes, flaccid, severe exopthalmos, euthanized): catatonic and unable to right itself | behavioral observation (Sprague Dawley male rats [5]; 100 mg/kg IP, one rat, within 15 minutes, euthanized): laterally recumbent displaying seizures and bleeding from the nose | behavioral observation (Sprague Dawley male rats [5]; Fifteen mg/kg, previously shown): no observable affect
